pEC50, pIC50: −log10 of the molar value.
Experiments:
NS3-NS4 [1] = target: T1, NS3-NS4 (Hepatitis C virus genotype 1a, UniProt P27958); assay: NS3-NS4 activity, IC50 (Example 37, Table 8); format: biochemical
NS3-NS4 [2] = target: T1, NS3-NS4; assay: cell-based; conditions: EC50, NS3-NS4 activity
[3] = Single ascending dose study, fasted and fed: safety and non-compartmental plasma PK; format: in vivo, healthy volunteers (human); conditions: single dose, healthy volunteers
Protocol: A single ascending dose (SAD) study of the compound 100 was conducted in healthy volunteers. The compound 100 was administered as monotherapy both with and without food. The safety and pharmacokinetic profile of the single dose of the compound 100 was assessed.
Interim, blinded data were used for Pharmacokinetic (PK) study relating to food effects. With the exception of the 400 mg cohort, eight subjects were studied at each dose (single doses of 100, 200, or 800 mg of the sodium salt of the compound 100, which may be referred to herein as ITMN-191, administered in the fasting state). In the 400 mg cohort, ten subjects received single 400 mg doses of ITMN-191 under both fasted and fed conditions with a 5-day washout period between dosing. In the 100 mg cohort, subjects were sampled within 1 hour before dosing and at 0.5, 1, 1.5, 2, 2.5, 3, 4, 6, 8, 12, 18, 24, 32 and 48 hours after dosing. For subsequent cohorts, subjects were sampled within 1 hour before dosing and at 0.25, 0.5, 1, 1.5, 2, 2.5, 3, 4, 6, 8, 12, 18, 24, and 32 hours after dosing. Nominal (not actual) sampling times were used for the analysis. PK samples were analyzed using liquid chromatography-tandem mass spectrometry (LC/MS/MS with API 4000 mass spectrometer) following solid-phase extraction. The upper and lower limits of quantitation (ULOQ and LLOQ) are 100 and 0.01 ng/mL, respectively.
Pharmacokinetic parameter estimates were calculated using non-compartmental methods (implemented using Microsoft Excel®). Half-lives were determined by visual inspection of the log concentration-time plots to choose the terminal phase (minimum of three detectable observations). Using linear regression of the chosen terminal phase observations, elimination rate constants were calculated as the negative slope of the regression line and half-life as the natural log of 2 divided by the elimination rate constant.
Ten subjects received single 1600 mg doses of ITMN-191 under both fasted and fed conditions with a 5-day washout period between dosing. For each condition, subjects were sampled within 1 hour before dosing and at 0.25, 0.5, 1, 1.5, 2, 2.5, 3, 4, 6, 8, 12, 18, 24, and 32 hours after dosing. Pharmacokinetic parameter estimates were calculated using non-compartmental methods. Half-life (t1/2) was determined by visual inspection of the log concentration-time plots to choose the terminal phase (minimum of three detectable observations). Using linear regression of the chosen terminal phase observations, elimination rate constants were calculated as the negative slope and half-life as the natural log of 2 divided by the elimination rate constant.

T1 sequence (P27958 1027-1657): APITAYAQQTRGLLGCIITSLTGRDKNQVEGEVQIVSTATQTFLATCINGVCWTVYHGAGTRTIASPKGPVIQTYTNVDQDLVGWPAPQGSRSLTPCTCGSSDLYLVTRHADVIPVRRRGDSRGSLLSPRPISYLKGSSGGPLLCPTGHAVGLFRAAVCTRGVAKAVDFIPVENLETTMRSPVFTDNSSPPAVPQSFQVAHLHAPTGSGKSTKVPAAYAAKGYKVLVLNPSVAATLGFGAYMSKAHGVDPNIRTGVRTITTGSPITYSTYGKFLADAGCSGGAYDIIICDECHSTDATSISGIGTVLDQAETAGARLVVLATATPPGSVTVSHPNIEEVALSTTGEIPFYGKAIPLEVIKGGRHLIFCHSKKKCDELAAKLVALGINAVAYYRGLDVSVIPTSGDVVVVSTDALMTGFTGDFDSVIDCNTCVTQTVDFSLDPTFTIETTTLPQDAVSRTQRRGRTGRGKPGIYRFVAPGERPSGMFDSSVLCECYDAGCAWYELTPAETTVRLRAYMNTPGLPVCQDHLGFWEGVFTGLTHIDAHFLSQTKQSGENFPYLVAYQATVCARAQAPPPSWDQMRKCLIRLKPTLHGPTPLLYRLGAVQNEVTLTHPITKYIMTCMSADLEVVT
T1 sequence (P27958 1658-1711): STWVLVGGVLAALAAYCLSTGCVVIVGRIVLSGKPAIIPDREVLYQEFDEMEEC

Compound	pIC50 (NS3-NS4 [1])	pEC50 (NS3-NS4 [2])	tolerability ([3]; all doses)	exposure when administered with food, compared to without food [3]
Cc1ccc(ONC(=O)[C@@]23C[C@H]2/C=C\CCCCC[C@H](NC(=O)OC(C)(C)C)C(=O)N2C[C@H](OC(=O)N4Cc5cccc(F)c5C4)C[C@H]2C(=O)N3)cc1C [Compound 714]	> 7.00	5.00 to 6.00	–	–
Cc1cc(C)cc(ONC(=O)[C@@]23C[C@H]2/C=C\CCCCC[C@H](NC(=O)OC(C)(C)C)C(=O)N2C[C@H](OC(=O)N4Cc5cccc(F)c5C4)C[C@H]2C(=O)N3)c1 [Compound 715]	> 7.00	5.00 to 6.00	–	–
CC(C)ONC(=O)[C@@]12C[C@H]1/C=C\CCCCC[C@H](NC(=O)OC(C)(C)C)C(=O)N1C[C@H](OC(=O)N3Cc4cccc(F)c4C3)C[C@H]1C(=O)N2 [Compound 718]	> 7.00	> 7.00	–	–
CC(C)CONC(=O)[C@@]12C[C@H]1/C=C\CCCCC[C@H](NC(=O)OC(C)(C)C)C(=O)N1C[C@H](OC(=O)N3Cc4cccc(F)c4C3)C[C@H]1C(=O)N2 [Compound 719]	> 7.00	> 7.00	–	–
CC(C)(C)CONC(=O)[C@@]12C[C@H]1/C=C\CCCCC[C@H](NC(=O)OC(C)(C)C)C(=O)N1C[C@H](OC(=O)N3Cc4cccc(F)c4C3)C[C@H]1C(=O)N2 [Compound 720]	> 7.00	> 7.00	–	–
COc1cccc(ONC(=O)[C@@]23C[C@H]2CCCCCCC[C@H](NC(=O)OC(C)(C)C)C(=O)N2C[C@H](OC(=O)N4Cc5cccc(F)c5C4)C[C@H]2C(=O)N3)c1 [Compound 801]	> 7.00	5.00 to 6.00	–	–
Cc1ccc(ONC(=O)[C@@]23C[C@H]2CCCCCCC[C@H](NC(=O)OC(C)(C)C)C(=O)N2C[C@H](OC(=O)N4Cc5cccc(F)c5C4)C[C@H]2C(=O)N3)cc1C [Compound 802]	> 7.00	5.00 to 6.00	–	–
CC(C)(C)OC(=O)N[C@H]1CCCCCCC[C@@H]2C[C@@]2(C(=O)NOc2ccc(-c3ccccc3)cc2)NC(=O)[C@@H]2C[C@@H](OC(=O)N3Cc4cccc(F)c4C3)CN2C1=O [Compound 803]	> 7.00	5.00 to 6.00	–	–
Cc1cccc(ONC(=O)[C@@]23C[C@H]2CCCCCCC[C@H](NC(=O)OC(C)(C)C)C(=O)N2C[C@H](OC(=O)N4Cc5cccc(F)c5C4)C[C@H]2C(=O)N3)c1 [Compound 805]	> 7.00	5.00 to 6.00	–	–
Cc1ccc(C)c(ONC(=O)[C@@]23C[C@H]2CCCCCCC[C@H](NC(=O)OC(C)(C)C)C(=O)N2C[C@H](OC(=O)N4Cc5cccc(F)c5C4)C[C@H]2C(=O)N3)c1 [Compound 806]	> 7.00	5.00 to 6.00	–	–
Cc1cc(C)cc(ONC(=O)[C@@]23C[C@H]2CCCCCCC[C@H](NC(=O)OC(C)(C)C)C(=O)N2C[C@H](OC(=O)N4Cc5cccc(F)c5C4)C[C@H]2C(=O)N3)c1 [Compound 807]	> 7.00	5.00 to 6.00	–	–
Cc1ccc(ONC(=O)[C@@]23C[C@H]2CCCCCCC[C@H](NC(=O)OC(C)(C)C)C(=O)N2C[C@H](OC(=O)N4Cc5cccc(F)c5C4)C[C@H]2C(=O)N3)cc1 [Compound 808]	> 7.00	5.00 to 6.00	–	–
CC(C)(C)OC(=O)N[C@H]1CCCCCCC[C@@H]2C[C@@]2(C(=O)NOc2ccc(Cl)cc2)NC(=O)[C@@H]2C[C@@H](OC(=O)N3Cc4cccc(F)c4C3)CN2C1=O [Compound 809]	> 7.00	5.00 to 6.00	–	–
CC(C)(C)OC(=O)N[C@H]1CCCCCCC[C@@H]2C[C@@]2(C(=O)NOc2cccc(F)c2)NC(=O)[C@@H]2C[C@@H](OC(=O)N3Cc4cccc(F)c4C3)CN2C1=O [Compound 810]	> 7.00	5.00 to 6.00	–	–
CC(C)(C)OC(=O)N[C@H]1CCCCCCC[C@@H]2C[C@@]2(C(=O)NOc2ccc(F)cc2)NC(=O)[C@@H]2C[C@@H](OC(=O)N3Cc4cccc(F)c4C3)CN2C1=O [Compound 811]	> 7.00	5.00 to 6.00	–	–
CC(C)ONC(=O)[C@@]12C[C@H]1CCCCCCC[C@H](NC(=O)OC(C)(C)C)C(=O)N1C[C@H](OC(=O)N3Cc4cccc(F)c4C3)C[C@H]1C(=O)N2 [Compound 812]	> 7.00	> 7.00	–	–
CC(C)(C)OC(=O)N[C@H]1CCCCCCC[C@@H]2C[C@@]2(C(=O)NOCC2CC2)NC(=O)[C@@H]2C[C@@H](OC(=O)N3Cc4cccc(F)c4C3)CN2C1=O [Compound 813]	> 7.00	> 7.00	–	–
CC(C)CONC(=O)[C@@]12C[C@H]1CCCCCCC[C@H](NC(=O)OC(C)(C)C)C(=O)N1C[C@H](OC(=O)N3Cc4cccc(F)c4C3)C[C@H]1C(=O)N2 [Compound 814]	> 7.00	> 7.00	–	–
CC(C)(C)ONC(=O)[C@@]12C[C@H]1CCCCCCC[C@H](NC(=O)OC(C)(C)C)C(=O)N1C[C@H](OC(=O)N3Cc4cccc(F)c4C3)C[C@H]1C(=O)N2 [Compound 815]	> 7.00	> 7.00	–	–
CC(C)(C)OC(=O)N[C@H]1CCCCC[C@@H]2C[C@@H]2[C@@H]2C[C@@]2(C(=O)NS(=O)(=O)C2(C)CC2)NC(=O)[C@@H]2C[C@@H](OC(=O)N3Cc4cccc(F)c4C3)CN2C1=O [Compound 901]	> 7.00	> 7.00	–	–
CC(C)(C)OC(=O)N[C@H]1CCCCC[C@@H]2C[C@@H]2[C@@H]2C[C@@]2(C(=O)NS(=O)(=O)C2CC2)NC(=O)[C@@H]2C[C@@H](OC(=O)N3Cc4cccc(F)c4C3)CN2C1=O [Compound 902]	> 7.00	> 7.00	–	–
CC(C)(C)OC(=O)N[C@H]1CCCCC[C@H]2C[C@H]2[C@@H]2C[C@@]2(C(=O)NS(=O)(=O)C2(C)CC2)NC(=O)[C@@H]2C[C@@H](OC(=O)N3Cc4cccc(F)c4C3)CN2C1=O [Compound 903]	> 7.00	> 7.00	–	–
CC(C)(C)OC(=O)N[C@H]1CCCCC[C@H]2C[C@H]2[C@@H]2C[C@@]2(C(=O)NS(=O)(=O)C2CC2)NC(=O)[C@@H]2C[C@@H](OC(=O)N3Cc4cccc(F)c4C3)CN2C1=O [Compound 904]	> 7.00	> 7.00	–	–
CC(C)(C)OC(=O)N[C@H]1CCCCC/C=C\[C@@H]2C[C@@]2(C(=O)NS(=O)(=O)C2CC2)NC(=O)[C@@H]2C[C@@H](OC(=O)N3Cc4cccc(F)c4C3)CN2C1=O [compound 100]	–	–	well tolerated	higher than anticipated exposure
